Laboratory results: the NIST ThermoML archive (doi:10.1021/je800312g)
Several values for one entry are separate records, joined by “and”; a condition that tells them apart may be missing. Equal values may be shown once. ± gives the expanded uncertainty stated by the source.

Settings: Fluid (supercritical or subcritical phases), Impulsive stimulated scattering

N [ammonia]
Settings	speed of sound
297 K, 620000 kPa	2741 ± 12 m/s
297 K, 700000 kPa	2836 ± 12 m/s
297 K, 780000 kPa	2942 ± 12 m/s and 2932 ± 12 m/s
297 K, 880000 kPa	3023 ± 12 m/s
297 K, 970000 kPa	3113 ± 13 m/s
298 K, 370000 kPa	2376 ± 11 m/s
298 K, 740000 kPa	2903 ± 12 m/s
474 K, 1430000 kPa	3280 ± 13 m/s
476 K, 1550000 kPa	3375 ± 14 m/s
476 K, 2200000 kPa	3788 ± 15 m/s
477 K, 1090000 kPa	2954 ± 12 m/s
479 K, 2220000 kPa	3797 ± 18 m/s
678 K, 2920000 kPa	4000 ± 16 m/s
678 K, 3080000 kPa	4072 ± 16 m/s
678 K, 3140000 kPa	4103 ± 17 m/s
679 K, 1480000 kPa	3084 ± 13 m/s
679 K, 2440000 kPa	3740 ± 15 m/s
679 K, 3750000 kPa	4342 ± 17 m/s
680 K, 1350000 kPa	2982 ± 12 m/s and 2970 ± 12 m/s
